Results reported in patent publication EP1914235A1, “CHIRAL TETRA-HYDRO BETA-CARBOLINE DERIVATIVES AND APPLICATIONS THEREOF AS ANTIPARASITIC COMPOUNDS” (Université de Lille 2 Droit et Santé, priority 2006, dated 2008).
≈ marks a conversion by molar mass, not a printed value.

Key:
[1] = tested on: Plasmodium berghei ANKA strain; assay: In vivo antiparasitic activity in infected mice (4-day dosing, parasitemia on day 5); settings: mice infected with P. berghei ANKA; for Activity at the dose 50 mg/kg (%): 50 mg/kg every day for 4 days
Procedure: Female mice (TFW or BALB/c, specific pathogen free), 18-20 g, or
Infection: Blood was taken from donor mice and diluted in RPMI-1640 medium to a parasitemia of 1% (the equivalent of 1x10^7 infected erythrocytes/ml) whilst kept on ice. An inoculum of 0.2 ml was administered to each mouse by the intravenous route. At 2-4 hours post-inoculation dosing commences.
Evaluation endpoint: On day 5 blood smears of all animals (2 slides/mouse) were prepared, fixed with methanol and stained with 10% Giemsa's stain. Parasitemia was determined microscopically by counting 1000 red blood cells under oil immersion at 1000x magnification.
Each of the tested compounds of formula (I) according to the invention was prepared as a stock solution of 5 mg/ml in 10% DMSO/PBS. Insoluble compounds of formula (I) were milled with stainless steel balls for up to 24 hours to reduce particle size. Fresh dilutions were prepared each day. The route of administration of tested compounds is intra peritoneal (i.p.).
Compounds were formulated at 10 mg/kg or at 50 mg/kg in a standard suspension vehicle (0.5% carboxymethylcellulose, 0.5% benzyl alcohol, 0.4% Tween® 80 in 0.9% NaCl) for both oral and i.p. administration.
Dosing was over a 4 day period as above, and evaluation was also as above.

[2] = tested on: P. falciparum K1 strain; assay: [3H]hypoxanthine drug sensitivity assay, K1 strain; format: cell-based; settings: Plasmodium falciparum, K1; read-out: IC50 K1
Procedure: (§1) The cultures are naturally asynchronous (65-75% ring stage) and are maintained in continuous log phase growth in RPMI-1640 medium (as developed by Moore et. al. at Roswell Park Memorial Institute, sold by Sigma Aldrich) supplemented with 5% washed human A+ erythrocytes, 25 mM Hepes, […] NaHCO3, and AlbuMAXII (lipid-rich bovine serum albumin) sold GIBCO, Grand Island, NY (CM). All cultures and assays were conducted at 37°C under an atmosphere of 5% CO2 and 5% O2, with a balance of N2.
(§2) The compounds were further diluted to the appropriate concentration using complete medium RPMI-1640 supplemented with 15nM cold hypoxanthine and AlbuMAXII.
(§3) Assays were performed in sterile 96-well microtitre plates; each plate contained 100 µl of parasite culture (0.5% parasitemia, 2.5% hematocrit). Each compound was tested in triplicate and parasite growth compared to control and blank (uninfected erythrocytes) wells. After 24h of incubation at 37°C, […] of [^3H]hypoxanthine was added to each well. Cultures were incubated for a further 24 h before they were harvested onto glass-fiber filter mats. The radioactivity was counted using a Wallac Microbeta® 1450 scintillation counter. The results were recorded as counts per minute (CPM) per well at each compound concentration, control and blank wells. Percentage inhibition was calculated from comparison to blank and control wells, and IC50 values calculated using Microsoft XLFit ® line fitting software (IDBS, UK).
(§4) Both the 3D7 clone and the K1 line were used. The compounds were diluted three-fold over at 12 different concentrations with an appropriate starting concentration based on the preliminary screen. The IC50 was determined by a sigmoidal dose response analysis using Microsoft XLFit™ (IDBS, UK).

[3] = tested on: P. falciparum 3D7 clone of NF54; assay: [3H]hypoxanthine drug sensitivity assay, 3D7 clone; format: cell-based; settings: Plasmodium falciparum; P. falciparum 3D7, sensitive to all anti-malarials; 48 h, [3H]hypoxanthine uptake; read-out: IC50 3D7(µg/ml)
Procedure: as §1, §2
as §3, with “The results were recorded as counts per minute (CPM) per well at each compound concentration, control and blank wells.” left out
The preliminary screen used the 3D7 strain. The compounds were tested at 6 concentrations (30, 10, 3, 1, 0.3, and 0.1 µg/ml).
as §4

| SMILES | Activity at the dose 50 mg/kg (%) [1] | IC50 [2] | IC50 [3] | Activity at the dose 10 mg/kg (%) ([1]; 10 mg/kg every day for 4 days) |
| --- | --- | --- | --- | --- |
| O=C1[C@H]2Cc3c([nH]c4ccccc34)[C@@H](c3ccc4c(c3)OCO4)N2C(=O)CN1[C@@H]1CCN(Cc2ccccn2)C1 [Compound 27, (6R,12aR)-6-Benzo[1,3]dioxol-5-yl-2-((R)-1-pyridin-2-ylmethyl-pyrrolidin-3-yl)-2,3,6,7,12,12a-hexahydro-pyrazino [1',2':1,6]pyrido[3,4-b]indole-1,4-dione] | 10% | 0.2 µg/mL (≈ 0.373 µM) | 0.08 µg/mL (≈ 0.149 µM) | – |
| O=C1[C@H]2Cc3c([nH]c4ccccc34)[C@@H](c3ccc(Cl)nc3)N2C(=O)CN1[C@@H]1CCN(Cc2ccccc2)C1 [Compound 84c, (6R,12aR)-2-((R)-1-Benzyl-pyrrolidin-3-yl)-6-(6-chloro-pyridin-3-yl)-2,3,6,7,12,12a-hexahydro-pyrazino[1',2':1,6] pyrido[3,4-b]indole-1,4-dione] | 9.1% | 0.11 µg/mL (≈ 0.209 µM) | 0.07 µg/mL (≈ 0.133 µM) | – |
| Cn1ccnc1CN1CC[C@@H](N2CC(=O)N3[C@@H](c4ccc5c(c4)OCO5)c4[nH]c5ccccc5c4C[C@@H]3C2=O)C1 [Compound 29, (6S,12aR)-6-Benzo[1,3]dioxol-5-yl-2-[(R)-1-(1-methyl-1H-imidazol-2-ylmethyl)-pyrrolidin-3-yl]-2,3,6,7,12,12a-hexahydro-pyrazino[1',2':1,6]pyrido[3,4-b]indole-1,4-dione] | 19% | 0.09 µg/mL (≈ 0.167 µM) | 0.5 µg/mL (≈ 0.928 µM) | – |
| O=C1[C@H]2Cc3c([nH]c4ccccc34)[C@@H](c3ccc4c(c3)OCO4)N2C(=O)CN1C1CCN(Cc2ccccc2)CC1 [Compound 10, (6R,12aR)-6-Benzo[1,3]dioxol-5-yl-2-(1-benzyl-piperidin-4-yl)-2,3,6,7,12,12a-hexahydro-pyrazino[1',2':1,6]pyrido[3,4-b]indole-1,4-dione] | 31% | 0.01 µg/mL (≈ 0.0182 µM) | 0.27 µg/mL (≈ 0.492 µM) | 15% |
| O=C1[C@H]2Cc3c([nH]c4ccccc34)[C@@H](c3ccc4c(c3)OCO4)N2C(=O)CN1[C@@H]1CCN(Cc2ccccc2)C1 [Compound 6, (6R,12aR)-6-Benzo[1,3]dioxol-5-yl-2-((R)-1-benzyl-pyrrolidin-3-yl)-2,3,6,7,12,12a-hexahydro-pyrazino[1',2':1,6]pyrido [3,4-b] indole-1,4-dione] | 43% | 0.12 µg/mL (≈ 0.224 µM) | 0.1 µg/mL (≈ 0.187 µM) | – |
